{
  "source": "patent US7678368B2",
  "about": "“Fucoidan-containing cosmetics” (Takara Bio Inc., priority 1999, dated 2010)",
  "key": {"C3H/He mice [1]": {"test_system": "C3H/He mice", "experiment": "Trichogenous ratio, Fucoidan Bf combined with carpronium chloride or minoxidil (Example 19)", "assay_type": "in vivo, mouse", "details": "for Trichogenous Ratio (%) (Trichogenous Area/Shaved Area): 200 μL once a day, 6 cases; for Trichogenous Ratio (%) (Trichogenous Area/Shaved Area) / Number of Individuals with Trichogenous Ratio of 60% or More: twenty-first day after shaving", "experimental": "Male C3H/He mice were purchased from Nippon SLC and used for an experiment from 8 week-old after pre-breeding the mice. The hair on the backside of each mouse was cut with hair clippers, and thereafter shaved with a razor. […] The resulting ethanol solution was applied onto the above hair-cut site of the backside of the mice in an amount of 200 μL per mouse. To the control group, 30% ethanol solution was similarly applied. The mice were administered once a day, for consecutive days. The administered sites were observed over the passage of time from the day of the beginning of administration (the day following the shaving), and the trichogenous area was determined on the twenty-first day after shaving and expressed as the ratio (%) to the shaved area."}, "C3H/He mice [2]": {"test_system": "C3H/He mice", "experiment": "Hair restoring effect of sulfated monosaccharides, scoring as in Example 13(3) (Example 14(2))", "assay_type": "in vivo, mouse", "details": "3% in 50% ethanol, 200 μL once a day, score 0-4", "experimental": "The administered site was observed over the passage of time from the beginning of administration, and a change in the skin color tone was evaluated by scoring. Specifically, the scoring criteria were defined as follows: Score 0: no change in the skin color, Score 1: the skin color being changed to blue, Score 2: the skin color being changed to black-blue to gray, Score 3: trichogenous state being observed, and Score 4: the state before the hair cutting being almost restored. (3) Male C3H/He mice were purchased from Nippon SLC and used for an experiment from 8 week-old after pre-breeding the mice. The hair on the backside of each mouse was cut with hair clippers, and thereafter shaved with a razor. (2) The hair restoring effect of the sulfated glucose prepared in item (1) of Example 14 was studied in the same manner as in item (3) of Example 13. Here, the sulfated glucose was dissolved in 50% ethanol in a concentration of 3%, and the resulting solution was applied onto the backside of the mice once a day in an amount of 200 μL per mouse. To the control group, 50% ethanol alone was applied. […] In addition, similar tests were carried out for the sulfated fucose, the sulfated mannose, the sulfated galactose, the sulfated xylose, the sulfated 2-deoxy-glucose and the sulfated talose."}, "[3]": {"test_system": "whiskers with the hair follicles of C3H/He mice", "experiment": "Culture of mouse whiskers with hair follicles, length of grown whisker (Examples 15-18)", "assay_type": "cell-based", "details": "whiskers of 6 day-old mice (Table 14)", "description": "(1) Two day-old male C3H/He mice were purchased from Nippon SLC together with the mother mice and used for an experiment from 5 day-old. The mice were sacrificed by exsanguination, and the whiskers together with the subcutaneous tissues were collected using scissors and tweezers. Further, the whiskers with the hair follicles were separated in a petri dish under the microscope according to the method by Ogawa et al. (J. Invest. Dermatol 103: 306-309, 1994). Fourteen to sixteen whiskers were collected from the right and left sides per mouse. […] Here, the given concentrations of each sample added are respectively expressed as the concentration per mL medium (mg/mL) in Table 10. […] The length of whisker was determined to the order of 0.1 mm before the beginning and after the termination of the culture under the microscope using a caliper. […] In addition, Student's t-test was used for test of significance, and P value was determined against the control group. […] The hair restoring effects for the fucoidan derived from Kjellmaniella crassifolia described in item (1) of Example 1 and 7-12SFd-F described in item (3) of Example 2 were evaluated in the same manner as in item (1) of Example 15. […] The hair restoring effects for Fucoidan Bf described in item (1) of Example 16 and F-rich fucoidan described in item (2) of Example 16 were evaluated in the same manner as in item (1) of Example 15. […]"}},
  "data": [
    {"molecule": "COC(=O)CCC[N+](C)(C)C.[Cl-]", "note": "[Carpronium Chloride, carpronium chloride]", "values": [
      {"measurement": "Trichogenous Ratio (%) (Trichogenous Area/Shaved Area)", "setting": "C3H/He mice [1]; 0.5% in 30% ethanol", "value": "23.9 ± 4.9", "unit": "%"},
      {"measurement": "Number of Individuals with Trichogenous Ratio of 60% or More", "setting": "C3H/He mice [1]; 0.5% in 30% ethanol", "value": "0/6"},
      {"measurement": "hair restoring effect", "setting": "C3H/He mice [1]; administration by application alone (0.5%)", "value": "No hair restoring effect"}
    ]},
    {"molecule": "Nc1cc(N2CCCCC2)nc(N)[n+]1[O-]", "note": "[Minoxidil, minoxidil]", "values": [
      {"measurement": "Trichogenous Ratio (%) (Trichogenous Area/Shaved Area)", "setting": "C3H/He mice [1]; 0.1% in 30% ethanol", "value": "42.9 ± 5.5", "unit": "%"},
      {"measurement": "Number of Individuals with Trichogenous Ratio of 60% or More", "setting": "C3H/He mice [1]; 0.1% in 30% ethanol", "value": "1/6"},
      {"measurement": "Trichogenous Ratio (%) (Trichogenous Area/Shaved Area)", "setting": "C3H/He mice [1]; 1% in 30% ethanol", "value": "69.1 ± 13.9", "unit": "%"},
      {"measurement": "Number of Individuals with Trichogenous Ratio of 60% or More", "setting": "C3H/He mice [1]; 1% in 30% ethanol", "value": "4/6"}
    ]},
    {"molecule": "sulfated (—SO3—Na^+) D-(+)-glucose [Sulfated Glucose]", "values": [
      {"measurement": "Average Score", "setting": "C3H/He mice [2]; duration of administration 11 days", "value": 0.6},
      {"measurement": "Average Score", "setting": "C3H/He mice [2]; duration of administration 12 days", "value": 0.6},
      {"measurement": "Average Score", "setting": "C3H/He mice [2]; duration of administration 13 days", "value": 1.0},
      {"measurement": "Average Score", "setting": "C3H/He mice [2]; duration of administration 14 days", "value": 1.6},
      {"measurement": "Average Score", "setting": "C3H/He mice [2]; duration of administration 15 days", "value": 1.8},
      {"measurement": "Length of Grown Whisker (mm) (Average Value ± Standard Error)", "setting": "[3]; 0.1 mg/mL", "value": "0.39 ± 0.11", "unit": "mm"},
      {"measurement": "Length of Grown Whisker (mm) (Average Value ± Standard Error)", "setting": "[3]; 1 mg/mL", "value": "1.31 ± 0.31", "unit": "mm"}
    ]}
  ]
}
